Calls of active or inactive are those of the source. The calls are words filed in the database; no cut-off is given here.
What was measured:
Carbonic anhydrase 9 = Carbonic anhydrase 9 (Homo sapiens, UniProt Q16790)
SNB-19 = test: Cytotoxicity against human SNB19 cells; format: functional
MOLT-4 [1] = test: Cytotoxicity against human MOLT4 cells at 10 uM; format: functional; details: read-out: GI
SR [2] = test: Cytotoxicity against human SR cells; format: functional
MDA-MB-231 = test: Cytotoxicity against human MDA-MB-231 cells; format: functional
SNB-75 [3] = test: Cytotoxicity against human SNB75 cells at 10 uM; format: functional; details: read-out: GI
NCI-H460 [4] = test: Cytotoxicity against human NCI-H460 cells; format: functional
MCF7 [5] = test: Cytotoxicity against human MCF7 cells; format: functional
HOP-92 [6] = test: Cytotoxicity against human HOP92 cells at 10 uM; format: functional; details: read-out: GI
K562 [7] = test: Cytotoxicity against human K562 cells at 10 uM; format: functional; details: read-out: GI
RPMI-8226 [8] = test: Cytotoxicity against human RPMI8226 cells; format: functional
M14 = test: Cytotoxicity against human M14 cells; format: functional
SF-539 = test: Cytotoxicity against human SF539 cells; format: functional
[9] = Cytotoxicity against human OVCAR4 cells; format: functional
HCC 2998 = test: Cytotoxicity against human HCC2998 cells; format: functional
[10] = Cytotoxicity against human Hs 578T cells; format: functional
HL-60(TB) [11] = test: Cytotoxicity against human HL-60(TB) cells; format: functional
SF-268 [12] = test: Cytotoxicity against human SF268 cells at 10 uM; format: functional; details: read-out: GI
SR [13] = test: Cytotoxicity against human SR cells at 10 uM; format: functional; details: read-out: GI
SK-MEL-2 [14] = test: Cytotoxicity against human SK-MEL-2 cells at 10 uM; format: functional; details: read-out: GI
A498 [15] = test: Cytotoxicity against human A498 cells at 10 uM; format: functional; details: read-out: GI
PC-3 [16] = test: Cytotoxicity against human PC3 cells at 10 uM; format: functional; details: read-out: GI
BT-549 = test: Cytotoxicity against human BT549 cells; format: functional
HOP-92 [17] = test: Cytotoxicity against human HOP92 cells; format: functional
[18] = Cytotoxicity against human Hs 578T cells at 10 uM; format: functional; details: read-out: GI
UACC-62 [19] = test: Cytotoxicity against human UACC62 cells; format: functional
MOLT-4 [20] = test: Cytotoxicity against human MOLT4 cells; format: functional
K562 [21] = test: Cytotoxicity against human K562 cells; format: functional
DU-145 = test: Cytotoxicity against human DU145 cells at 10 uM; format: functional; details: read-out: GI
SK-MEL-2 [22] = test: Cytotoxicity against human SK-MEL-2 cells; format: functional
RPMI-8226 [23] = test: Cytotoxicity against human RPMI8226 cells at 10 uM; format: functional; details: read-out: GI
OVCAR-3 [24] = test: Cytotoxicity against human OVCAR3 cells; format: functional
A549 = test: Cytotoxicity against human A549 cells at 10 uM; format: functional; details: read-out: GI
A498 [25] = test: Cytotoxicity against human A498 cells; format: functional
MDA-MB-468 [26] = test: Cytotoxicity against human MDA-MB-468 cells; format: functional
PC-3 [27] = test: Cytotoxicity against human PC3 cells; format: functional
SW-620 = test: Cytotoxicity against human SW620 cells at 10 uM; format: functional; details: read-out: GI
HL-60(TB) [28] = test: Cytotoxicity against human HL-60(TB) cells at 10 uM; format: functional; details: read-out: GI
OVCAR-8 = test: Cytotoxicity against human OVCAR8 cells; format: functional
KM12 [29] = test: Cytotoxicity against human KM12 cells; format: functional
MDA-MB-468 [30] = test: Cytotoxicity against human MDA-MB-468 cells at 10 uM; format: functional; details: read-out: GI
NCI/ADR-RES = test: Cytotoxicity against human NCI-ADR-RES cells at 10 uM; format: functional
KM12 [31] = test: Cytotoxicity against human KM12 cells at 10 uM; format: functional; details: read-out: GI
LOX IMVI [32] = test: Cytotoxicity against human LOXIMVI cells; format: functional
Malme-3M = test: Cytotoxicity against human MALME-3M cells; format: functional
NCI-H460 [33] = test: Cytotoxicity against human NCI-H460 cells at 10 uM; format: functional; details: read-out: GI
T47D [34] = test: Cytotoxicity against human T47D cells at 10 uM; format: functional; details: read-out: GI
HT-29 = test: Cytotoxicity against human HT-29 cells at 10 uM; format: functional; details: read-out: GI
UACC-62 [35] = test: Cytotoxicity against human UACC62 cells at 10 uM; format: functional; details: read-out: GI
MDA-MB-435 = test: Cytotoxicity against human MDA-MB-435 cells; format: functional
OVCAR-3 [36] = test: Cytotoxicity against human OVCAR3 cells at 10 uM; format: functional; details: read-out: GI
SK-MEL-28 = test: Cytotoxicity against human SK-MEL-28 cells; format: functional
[37] = Cytotoxicity against human UACC257 cells; format: functional
MCF7 [38] = test: Cytotoxicity against human MCF7 cells at 10 uM; format: functional; details: read-out: GI
SNB-75 [39] = test: Cytotoxicity against human SNB75 cells; format: functional
SF-268 [40] = test: Cytotoxicity against human SF268 cells; format: functional
HCT-116 = test: Cytotoxicity against human HCT116 cells; format: functional
IGROV-1 = test: Cytotoxicity against human IGROV1 cells; format: functional
CCRF-CEM = test: Cytotoxicity against human CCRF-CEM cells; format: functional
COLO 205 = test: Cytotoxicity against human COLO205 cells; format: functional
T47D [41] = test: Cytotoxicity against human T47D cells; format: functional
LOX IMVI [42] = test: Cytotoxicity against human LOXIMVI cells at 10 uM; format: functional; details: read-out: GI
NCI-H522 = test: Cytotoxicity against human NCI-H522 cells; format: functional
[43] = read-out: LC50 (the source's name)

## Cc1cc(S(=O)(=O)NC(=N)NCc2ccc(S(N)(=O)=O)cc2)c(SCc2cc(=O)[nH]c3ccccc23)cc1Cl
Carbonic anhydrase 9
  Ki: 0.31 µM

## Cc1cc(S(=O)(=O)NC(=N)Nc2ccc(S(N)(=O)=O)cc2)c(SCc2ccc(C(F)(F)F)cc2)cc1Cl
SNB-19
  GI50: 5 µM
  TGI: 21.5 µM
SNB-19; [43]
  CC50: 61.1 µM
MOLT-4 [1]
  inhibition of growth at 10 µM: 60%
SR [2]
  GI50: 2.1 µM
  TGI: 5.9 µM
SR [2]; [43]
  CC50: > 100 µM
MDA-MB-231
  GI50: 2.5 µM
  TGI: 11.1 µM
MDA-MB-231; [43]
  CC50: 37 µM
SNB-75 [3]
  inhibition of growth at 10 µM: 71%
NCI-H460 [4]
  GI50: 4.2 µM
  TGI: 18.5 µM
NCI-H460 [4]; [43]
  CC50: 90 µM
MCF7 [5]
  GI50: 2.9 µM
  TGI: 14.1 µM
MCF7 [5]; [43]
  CC50: 69.7 µM
HOP-92 [6]
  inhibition of growth at 10 µM: 58%
K562 [7]
  inhibition of growth at 10 µM: 64%
RPMI-8226 [8]
  GI50: 3.1 µM
  TGI: 11 µM
RPMI-8226 [8]; [43]
  CC50: > 100 µM
M14
  GI50: 7.3 µM
  TGI: 22 µM
M14; [43]
  CC50: 56.3 µM
SF-539
  GI50: 4.8 µM
  TGI: 18.3 µM
SF-539; [43]
  CC50: 45.1 µM
[9]; OVCAR-4
  GI50: 3.9 µM
  TGI: 25.1 µM
[9]; OVCAR-4, read-out: LC50 (the source's name)
  CC50: > 100 µM
HCC 2998
  GI50: 3.9 µM
  TGI: 13.8 µM
HCC 2998; [43]
  CC50: 46.2 µM
[10]
  GI50: 3.7 µM
  TGI: 24.6 µM
[10]; [43]
  CC50: > 100 µM
HL-60(TB) [11]
  GI50: 2.1 µM
  TGI: 5.5 µM
HL-60(TB) [11]; [43]
  CC50: 34.5 µM
SF-268 [12]
  inhibition of growth at 10 µM: 31%
SR [13]
  inhibition of growth at 10 µM: 72%
SK-MEL-2 [14]
  inhibition of growth at 10 µM: 43%
A498 [15]
  inhibition of growth at 10 µM: 15%
PC-3 [16]
  inhibition of growth at 10 µM: 74%
BT-549
  GI50: 4.6 µM
  TGI: 18.5 µM
BT-549; [43]
  CC50: 58 µM
HOP-92 [17]
  GI50: 2.7 µM
  TGI: 8.6 µM
HOP-92 [17]; [43]
  CC50: 33.9 µM
[18]
  inhibition of growth at 10 µM: 20%
UACC-62 [19]
  GI50: 2.6 µM
  TGI: 10.4 µM
UACC-62 [19]; [43]
  CC50: 33 µM
MOLT-4 [20]
  GI50: 2.8 µM
  TGI: 11.2 µM
MOLT-4 [20]; [43]
  CC50: > 100 µM
K562 [21]
  GI50: 3.6 µM
  TGI: 21.1 µM
K562 [21]; [43]
  CC50: > 100 µM
DU-145
  inhibition of growth at 10 µM: 9%
SK-MEL-2 [22]
  GI50: 2.4 µM
  TGI: 6.3 µM
SK-MEL-2 [22]; [43]
  CC50: 25.3 µM
RPMI-8226 [23]
  inhibition of growth at 10 µM: 57%
OVCAR-3 [24]
  GI50: 3.9 µM
  TGI: 14 µM
OVCAR-3 [24]; [43]
  CC50: 39 µM
A549
  inhibition of growth at 10 µM: 32%
A498 [25]
  GI50: 4.6 µM
  TGI: 21.1 µM
A498 [25]; [43]
  CC50: 53.7 µM
MDA-MB-468 [26]
  GI50: 2.7 µM
  TGI: 15 µM
MDA-MB-468 [26]; [43]
  CC50: 81.6 µM
PC-3 [27]
  GI50: 3.7 µM
  TGI: 13.7 µM
PC-3 [27]; [43]
  CC50: 40.9 µM
SW-620
  inhibition of growth at 10 µM: 12%
HL-60(TB) [28]
  inhibition of growth at 10 µM: 66%
OVCAR-8
  GI50: 4.6 µM
  TGI: 22.9 µM
OVCAR-8; [43]
  CC50: 87.6 µM
KM12 [29]
  GI50: 3.1 µM
  TGI: 10.9 µM
KM12 [29]; [43]
  CC50: 40.2 µM
MDA-MB-468 [30]
  inhibition of growth at 10 µM: 63%
NCI/ADR-RES
  growth inhibition (GI): inactive
KM12 [31]
  inhibition of growth at 10 µM: 50%
LOX IMVI [32]
  GI50: 4.9 µM
  TGI: 17.7 µM
LOX IMVI [32]; [43]
  CC50: 48.4 µM
Malme-3M
  GI50: 6.7 µM
  TGI: 21 µM
Malme-3M; [43]
  CC50: 52.5 µM
NCI-H460 [33]
  inhibition of growth at 10 µM: 21%
T47D [34]
  inhibition of growth at 10 µM: 58%
HT-29
  inhibition of growth at 10 µM: 22%
UACC-62 [35]
  inhibition of growth at 10 µM: 49%
MDA-MB-435
  GI50: 3.8 µM
  TGI: 14.8 µM
MDA-MB-435; [43]
  CC50: 46.1 µM
OVCAR-3 [36]
  inhibition of growth at 10 µM: 50%
SK-MEL-28
  GI50: 4.2 µM
  TGI: 15.6 µM
SK-MEL-28; [43]
  CC50: 46.6 µM
[37]; UACC-257
  GI50: 3.6 µM
  TGI: 15.2 µM
[37]; UACC-257, read-out: LC50 (the source's name)
  CC50: 41.1 µM
MCF7 [38]
  inhibition of growth at 10 µM: 69%
SNB-75 [39]
  GI50: 2.7 µM
  TGI: 17.4 µM
SNB-75 [39]; [43]
  CC50: 66.1 µM
SF-268 [40]
  GI50: 5.5 µM
  TGI: 21.2 µM
SF-268 [40]; [43]
  CC50: 64.8 µM
HCT-116
  GI50: 4 µM
  TGI: 15.4 µM
HCT-116; [43]
  CC50: 45.9 µM
IGROV-1
  GI50: 5.8 µM
  TGI: 23.3 µM
IGROV-1; [43]
  CC50: 93 µM
CCRF-CEM
  GI50: 3.8 µM
  TGI: 15.2 µM
CCRF-CEM; [43]
  CC50: 86.2 µM
COLO 205
  GI50: 4.4 µM
  TGI: 17.7 µM
COLO 205; [43]
  CC50: 80.6 µM
T47D [41]
  GI50: 5.1 µM
  TGI: 22.8 µM
T47D [41]; [43]
  CC50: 95.8 µM
LOX IMVI [42]
  inhibition of growth at 10 µM: 29%
NCI-H522
  GI50: 3.9 µM
  TGI: 16.3 µM
NCI-H522; [43]
  CC50: 48.5 µM

Source: ChEMBL document CHEMBL3102853, “Carbonic anhydrase inhibitors. Synthesis, and molecular structure of novel series N-substituted N'-(2-arylmethylthio-4-chloro-5-methylbenzenesulfonyl)guanidines and their inhibition of human cytosolic isozymes I and II and the transmembrane tumor-associated isozymes IX and XII” (Eur J Med Chem, 2014)
